Measured values reported in ChEMBL document CHEMBL4138237, “Activation of anti-oxidant Nrf2 signaling by enone analogues of curcumin” (Eur J Med Chem, 2018).
Calls of active or inactive are those of the source.

Columns and labels:
[1] = target: Luciferin 4-monooxygenase (Photinus pyralis, UniProt P08659); assay: Effect on firefly luciferase activity expressed in human HepG2 cells at low concentration after 5 hrs by luminescence assay; assay type: ADME, cell-based; conditions: hepg2, 5 h
[2] = target: T1, Nuclear factor erythroid 2-related factor 2 (Homo sapiens) (UniProt Q16236); assay: Activation of Nrf2 (unknown origin) expressed in human HepG2 cells at 15 uM after 5 hrs by ARE-driven luciferase reporter gene assay relative to control; assay type: cell-based
T1 sequence (whole entry): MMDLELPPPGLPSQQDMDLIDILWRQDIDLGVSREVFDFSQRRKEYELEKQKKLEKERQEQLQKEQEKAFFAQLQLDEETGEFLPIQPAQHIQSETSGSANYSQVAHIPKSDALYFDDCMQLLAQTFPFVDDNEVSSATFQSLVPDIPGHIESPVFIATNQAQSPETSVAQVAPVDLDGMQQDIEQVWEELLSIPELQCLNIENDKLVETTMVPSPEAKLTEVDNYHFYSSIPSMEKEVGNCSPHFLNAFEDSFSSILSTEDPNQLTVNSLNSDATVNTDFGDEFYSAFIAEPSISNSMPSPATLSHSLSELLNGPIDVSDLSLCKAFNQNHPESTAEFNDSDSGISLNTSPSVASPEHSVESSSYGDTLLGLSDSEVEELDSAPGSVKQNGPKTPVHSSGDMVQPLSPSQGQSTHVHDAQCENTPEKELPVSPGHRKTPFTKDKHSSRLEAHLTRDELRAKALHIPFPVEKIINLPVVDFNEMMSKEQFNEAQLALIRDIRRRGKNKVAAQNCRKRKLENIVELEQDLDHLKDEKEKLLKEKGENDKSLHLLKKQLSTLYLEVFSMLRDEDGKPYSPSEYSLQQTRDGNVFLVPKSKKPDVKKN

Chain of Luciferin 4-monooxygenase (P08659 whole entry): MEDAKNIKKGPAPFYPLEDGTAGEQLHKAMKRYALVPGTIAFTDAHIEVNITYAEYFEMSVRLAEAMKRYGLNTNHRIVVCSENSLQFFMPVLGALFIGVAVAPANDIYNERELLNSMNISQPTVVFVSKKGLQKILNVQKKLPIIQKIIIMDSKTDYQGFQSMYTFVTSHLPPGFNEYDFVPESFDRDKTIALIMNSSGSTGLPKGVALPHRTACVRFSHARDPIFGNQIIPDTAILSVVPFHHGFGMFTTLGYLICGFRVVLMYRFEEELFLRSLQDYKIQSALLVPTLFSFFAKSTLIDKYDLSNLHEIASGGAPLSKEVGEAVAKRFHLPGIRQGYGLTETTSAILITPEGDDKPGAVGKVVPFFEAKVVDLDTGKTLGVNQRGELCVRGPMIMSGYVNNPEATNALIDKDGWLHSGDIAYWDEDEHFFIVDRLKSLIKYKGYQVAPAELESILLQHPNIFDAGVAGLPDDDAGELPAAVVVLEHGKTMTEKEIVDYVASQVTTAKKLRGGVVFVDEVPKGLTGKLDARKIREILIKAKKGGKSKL

| Activity [2] | fold change (FC) [2] | Structure (SMILES) | Activity [1] |
| --- | --- | --- | --- |
|  |  | COc1cccc(/C=C2\CN(C)C/C(=C\c3cccc(OC)c3)C2=O)c1 | Non-Toxic |
|  |  | CC(=O)Oc1ccc(/C=C/C(=O)/C=C/c2ccc(OC(C)=O)cc2)cc1 | Non-Toxic |
| inactive |  | COc1cc(/C=C2\CN(C)C/C(=C\c3cc(OC)c(OC)c(OC)c3)C2=O)cc(OC)c1OC | Non-Toxic |
|  |  | COc1ccc(/C=C2\CCC/C(=C\c3ccc(OC)c(OC)c3)C2=O)cc1OC | Non-Toxic |
| Active |  | O=C1/C(=C/c2c(Cl)cccc2Cl)CCC/C1=C\c1c(Cl)cccc1Cl | Non-Toxic |
| Active |  | COc1ccc(OC)c(/C=C/C(=O)CC(=O)/C=C/c2cc(OC)ccc2OC)c1 | Non-Toxic |
|  | 22.6 | COc1cc(/C=C/C(=O)CC(=O)/C=C/c2ccc(O)c(OC)c2)ccc1O [CURCUMIN] | Non-Toxic |
| Active |  | CN1C/C(=C\c2cccc(Br)c2)C(=O)/C(=C/c2cccc(Br)c2)C1 | Non-Toxic |
|  |  | O=C(/C=C/c1ccccc1)/C(Cc1ccccc1)=C(O)/C=C/c1ccccc1 | Non-Toxic |
|  |  | COc1cccc(/C=C2\CN(C)C/C(=C\c3cccc(OC)c3OC)C2=O)c1OC | Non-Toxic |
|  |  | COc1ccc(/C=C/C(=O)/C=C/c2ccc(OC)c(O)c2)cc1O | Non-Toxic |
| inactive |  | O=C(/C=C/c1ccc(Br)cc1)CC(=O)/C=C/c1ccc(Br)cc1 | Non-Toxic |
| inactive |  | O=C(/C=C/c1ccc(Br)cc1)/C=C/c1ccc(Br)cc1 | Non-Toxic |
|  |  | O=C(CCc1ccccc1)C(Cc1ccccc1)C(=O)CCc1ccccc1 | Non-Toxic |
| Active |  | COc1ccc(/C=C/C(=O)CC(=O)/C=C/c2ccc(OC)cc2OC)c(OC)c1 | Non-Toxic |
|  |  | CC(C(=O)CCc1ccccc1)C(=O)CCc1ccccc1 | Non-Toxic |
| Active |  | COc1cccc(/C=C2\CCC/C(=C\c3cccc(OC)c3)C2=O)c1 | Non-Toxic |
|  |  | COc1ccc(/C=C2\CN(C)C/C(=C\c3ccc(OC)cc3)C2=O)cc1 | Non-Toxic |
| Active |  | COc1cc(C(=O)/C=C/c2ccccc2)ccc1O | Non-Toxic |
| inactive |  | O=C(/C=C/c1cccc([N+](=O)[O-])c1)CC(=O)/C=C/c1cccc([N+](=O)[O-])c1 | Non-Toxic |
|  |  | N#Cc1ccc(C(=O)/C=C/c2ccccc2)cc1 | Non-Toxic |
|  |  | COc1ccc(/C=C/C(=O)/C=C/c2ccc(OC)cc2OC)c(OC)c1 | Non-Toxic |

| Activity [2] | fold change (FC) [2] | Structure (SMILES) | Activity [1] |
| --- | --- | --- | --- |
| Active |  | O=C(/C=C/c1ccc(O)cc1)CC(=O)/C=C/c1ccc(O)cc1 [BISDEMETHOXYCURCUMIN] | Non-Toxic |
| inactive |  | COc1ccccc1/C=C1\CCC/C(=C\c2ccccc2OC)C1=O | Non-Toxic |
|  |  | COc1cccc(/C=C/C(=O)/C=C/c2cccc(OC)c2OC)c1OC | Non-Toxic |
| Active |  | Cc1cccc(/C=C2\CN(C)C/C(=C\c3cccc(C)c3)C2=O)c1 | Non-Toxic |
|  |  | O=C(O)c1ccc(C(=O)/C=C/c2ccccc2)cc1 | Non-Toxic |
| Active |  | CC(C)c1ccc(/C=C2\CN(C)C/C(=C\c3ccc(C(C)C)cc3)C2=O)cc1 | Non-Toxic |
|  |  | COc1ccc(/C=C/C(=O)/C=C/c2ccc(OC)c(OC)c2)cc1OC | Non-Toxic |
| Active |  | O=C(/C=C/c1ccccc1)/C=C/c1ccccc1 | Non-Toxic |
| inactive |  | COc1ccc(/C=C2\CCC/C(=C\c3ccc(OC)cc3)C2=O)cc1 | Non-Toxic |
|  |  | COc1ccc(/C=C/C(=O)/C=C/c2ccccc2)cc1 | Non-Toxic |
| inactive |  | CN(C)c1ccc(/C=C/C(=O)/C=C/c2ccc(N(C)C)cc2)cc1 | Non-Toxic |
| Active |  | O=C(/C=C/c1cccc(O)c1)CC(=O)/C=C/c1cccc(O)c1 | Non-Toxic |
| inactive |  | CN(C)c1ccc(/C=C/C(=O)CC(=O)/C=C/c2ccc(N(C)C)cc2)cc1 | Non-Toxic |
|  |  | CCOc1ccc(/C=C2\CN(C)C/C(=C\c3ccc(OCC)cc3)C2=O)cc1 | Non-Toxic |
| Active |  | O=C(O)c1ccc(/C=C/C(=O)c2ccccc2)cc1 | Non-Toxic |
|  |  | COc1cc(/C=C/C(=O)/C=C/c2ccccc2)ccc1O | Non-Toxic |
|  | 29.9 | Cc1ccc(C(=O)/C=C/c2ccccc2)c(C)c1 | Non-Toxic |
|  |  | C/C(C(=O)/C=C/c1ccccc1)=C(O)\C=C\c1ccccc1 | Non-Toxic |
| inactive |  | O=C(/C=C/c1ccc(Cl)cc1)CC(=O)/C=C/c1ccc(Cl)cc1 | Non-Toxic |
|  |  | COc1cccc(OC)c1/C=C/C(=O)/C=C/c1c(OC)cccc1OC | Non-Toxic |
|  |  | COc1ccc(OC)c(/C=C2\CCC/C(=C\c3cc(OC)ccc3OC)C2=O)c1 | Non-Toxic |
|  |  | COc1cc(/C=C/C(=O)/C=C/c2cc(OC)cc(OC)c2)cc(OC)c1 | Non-Toxic |

| Activity [2] | fold change (FC) [2] | Structure (SMILES) | Activity [1] |
| --- | --- | --- | --- |
|  |  | COc1ccc(/C=C2\CN(C)C/C(=C\c3ccc(OC)c(OC)c3OC)C2=O)c(OC)c1OC | Non-Toxic |
|  |  | CC(=O)/C=C/c1ccccc1O | Non-Toxic |
|  |  | COc1ccccc1/C=C/C(=O)/C=C/c1ccccc1OC | Non-Toxic |
|  |  | COc1ccc(/C=C2\CN(C)C/C(=C\c3ccc(OC)cc3OC)C2=O)c(OC)c1 | Non-Toxic |
|  |  | COc1cc(/C=C2\CCC/C(=C\c3ccc(O)c(OC)c3)C2=O)ccc1O [CYCLOVALONE] | Non-Toxic |
|  |  | O=C1/C(=C/c2ccc(Br)cc2)CCC/C1=C\c1ccc(Br)cc1 | Non-Toxic |
|  |  | O=C(/C=C/c1cccc(O)c1)/C=C/c1cccc(O)c1 | Non-Toxic |
|  |  | COc1ccc(/C=C2\CCC/C(=C\c3ccc(OC)c(OC)c3OC)C2=O)c(OC)c1OC | Non-Toxic |
|  |  | O=C1/C(=C/c2cccc(F)c2)CCC/C1=C\c1cccc(F)c1 | Non-Toxic |
|  |  | COc1cc(/C=C2\CCC/C(=C\c3cc(OC)c(OC)c(OC)c3)C2=O)cc(OC)c1OC | Non-Toxic |
|  |  | COc1ccc(/C=C/C(C)=O)cc1 | Non-Toxic |
|  |  | COc1cccc(/C=C2\CCC/C(=C\c3cccc(OC)c3OC)C2=O)c1OC | Non-Toxic |
|  |  | COc1cc(/C=C/C(=O)/C=C/c2ccc(OC(C)=O)c(OC)c2)ccc1OC(C)=O | Non-Toxic |
|  |  | O=C(/C=C(\O)c1ccccc1)c1ccccc1 | Non-Toxic |
|  |  | COc1cccc(/C=C/C(=O)CC(=O)/C=C/c2cccc(OC)c2OC)c1OC | Non-Toxic |
|  |  | COc1ccc(/C=C/C(=O)CC(=O)/C=C/c2ccc(OC)c(OC)c2)cc1OC [TETRAMETHOXYCURCUMIN] | Non-Toxic |
|  |  | COc1cc(CCC(=O)C(Cc2ccccc2)C(=O)CCc2ccc(O)c(OC)c2)ccc1O | Non-Toxic |
|  |  | CSc1ccc(/C=C2\CN(C)C/C(=C\c3ccc(SC)cc3)C2=O)cc1 | Non-Toxic |
|  |  | O=C1/C(=C/c2cccc(O)c2)CCC/C1=C\c1cccc(O)c1 | Non-Toxic |
|  |  | COc1cc(/C=C2\CN(C)C/C(=C\c3cc(OC)cc(OC)c3)C2=O)cc(OC)c1 | Non-Toxic |
|  |  | COc1ccccc1/C=C/C(=O)CC(=O)/C=C/c1ccccc1OC | Non-Toxic |
